Source: PMC3493702 (Cornea, 2013)

What was measured:
[1] = in vitro; settings: rabbit, Ptot (apparent permeability coefficient) [corneal permeability]
[2] = corneal permeability, literature value; cited from earlier work

Row | Structure (SMILES) | Papp at 120 min, 100 mM [1] [×10⁻⁶ cm/s] | Ptot [2] [×10⁻⁶ cm/s]
1 | CC(CO)(CO)[N+](=O)[O-] [MNPD, 2-methyl-2-nitro-1,3-propanediol] | 4.37 | 
2 | OC[C@@H](O)[C@@H](O)[C@H](O)[C@H](O)CO [mannitol] |  | 2.4
